System: MsC17OMT (MsOMT1)
Experiment: LC-MS/MS methyltransferase assay, Michaelis-Menten fit
Assay type: biochemical, Mitragyna speciosa
Conditions: 100 μM SAM, Tris-HCl pH 7.5, 30 °C, 2 min

Km	Structure (SMILES)
5.3 µM	C/C=C1/CN2CCc3c([nH]c4ccccc34)[C@@H]2C[C@@H]1/C(=C/O)C(=O)OC [compound 3, 19E-geissoschizine]
12.8 µM	C/C=C1\CN2CCc3c([nH]c4ccccc34)[C@@H]2C[C@@H]1/C(=C/O)C(=O)OC [compound 4, 19Z-geissoschizine]

— doi:10.1101/2022.12.25.521902v1 (biorxiv, 2022)
